Assay results from patent publication US8394971B2, “Indole derivatives as selective androgen receptor modulators (SARMS)” (Janssen Pharmaceutica N.V., priority 2004, dated 2013).
Values joined by “and” are separate entries in the source; they are usually repeats but may differ in a detail not shown here. Equal values may be shown once.

Experiments:
[1] = molecular target: T1, androgen receptor LBD (Panvera) (Rattus norvegicus, UniProt P15207); test: Androgen Receptor Filtration Binding Assay (PANVERA); settings: Androgen Receptor Binding (Panvera); 0.5 nM [3H] R1881 tracer
T1 construct: 5 pmol androgen receptor LBD (Panvera); purchased Panvera
T1 sequence (P15207 651-882 limits assumed): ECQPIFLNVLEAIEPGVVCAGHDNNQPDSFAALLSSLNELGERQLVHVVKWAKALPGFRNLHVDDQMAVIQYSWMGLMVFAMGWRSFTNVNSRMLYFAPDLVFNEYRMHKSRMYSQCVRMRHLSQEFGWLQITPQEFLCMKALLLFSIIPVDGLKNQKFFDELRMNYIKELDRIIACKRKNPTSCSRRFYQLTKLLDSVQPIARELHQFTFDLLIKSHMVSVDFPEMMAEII
Procedure: (§1) The assay was run on a 96 well plate with each well filled with a total reaction volume 150 μL, of a solution containing 5 pmol androgen receptor LBD (Panvera) or 30 μL of freshly prepared rat cytosol, 0.5 nM [^3H] […] (TED buffer contains 10 mM Tris.HCl pH 7.4, 1 mM sodium molybdate, 1.5 mM EDTA, 1 mM DTT and 10% (v/v) glycerol.)
(§2) On day one, the solution containing receptor, tracer and TED buffer was distributed into a 96 well plate. Diluted test compound or control vehicle was then added to individual wells and the plate incubated at 4° C. overnight.
(§3) On day two, to each well was then added 20 μL human γ-globulin (ICN 823102), prepared at 25 mg/ml in TE pH 8.0, and 55 μL 40% polyethylene glycol 8000 (JT Baker U222-08), prepared in TE pH 8.0. The plate was incubated at 4° C. for 60 minutes. During incubation, the harvester was rinsed with 10% PEG 8000, prepared in TE pH 8.0, and a GF/C Unifilter-96 was pre-wet with 10% PEG. The binding reaction was filtered, the retentate was washed three times with 10% PEG and dried under vacuum for a couple of minutes, then dried at 50° C. for 5 min and the plate was bottom sealed. Next, 25 μL of Microscint-20 (Packard) was added to the filter wells and the plate was top sealed. The plate wells were then counted on a TopCount (Packard).
Counts per well were measured and IC50s determined by linear regression.

[2] = molecular target: T2, androgen receptor (rat ventral prostate cytosol) (Rattus norvegicus, UniProt P15207); test: Androgen Receptor Binding Using Rat Ventral Prostate Cytosol; settings: for IC50: read-out: IC50
T2 construct: from tissue; host or cells: ventral prostate of castrated male Sprague Dawley or Wistar rats, cytosol
T2 sequence (P15207 1-902): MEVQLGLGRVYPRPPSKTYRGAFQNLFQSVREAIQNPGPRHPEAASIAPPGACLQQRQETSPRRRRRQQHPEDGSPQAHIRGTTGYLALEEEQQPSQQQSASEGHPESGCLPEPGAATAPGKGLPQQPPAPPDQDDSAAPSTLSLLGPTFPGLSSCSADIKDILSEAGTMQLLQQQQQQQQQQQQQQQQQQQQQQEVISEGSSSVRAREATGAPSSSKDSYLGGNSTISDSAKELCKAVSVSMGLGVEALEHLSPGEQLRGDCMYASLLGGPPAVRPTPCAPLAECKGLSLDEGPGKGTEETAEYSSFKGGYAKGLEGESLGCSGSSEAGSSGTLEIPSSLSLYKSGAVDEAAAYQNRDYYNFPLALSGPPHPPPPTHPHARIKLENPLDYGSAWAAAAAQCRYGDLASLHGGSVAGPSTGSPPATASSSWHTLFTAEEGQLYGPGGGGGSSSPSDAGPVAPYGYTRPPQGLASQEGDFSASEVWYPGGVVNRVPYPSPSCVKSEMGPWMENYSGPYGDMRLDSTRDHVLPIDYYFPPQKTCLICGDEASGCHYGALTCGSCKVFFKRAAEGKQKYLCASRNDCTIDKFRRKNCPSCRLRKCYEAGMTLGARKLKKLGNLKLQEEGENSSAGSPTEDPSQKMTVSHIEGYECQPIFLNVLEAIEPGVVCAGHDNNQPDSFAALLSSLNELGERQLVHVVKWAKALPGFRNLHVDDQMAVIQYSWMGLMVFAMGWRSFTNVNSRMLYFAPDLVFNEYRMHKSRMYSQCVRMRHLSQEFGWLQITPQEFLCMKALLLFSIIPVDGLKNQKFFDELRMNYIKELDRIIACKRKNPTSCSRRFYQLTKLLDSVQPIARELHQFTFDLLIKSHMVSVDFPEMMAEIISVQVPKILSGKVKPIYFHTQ
Procedure: as §1, §2, §3
Rat Prostate Cytosol Preparation:
Male Sprague Dawley or Wistar rats (Charles River, 200-300 g) were used for each preparation. The day before preparing the cytosol, the rats were castrated using standard surgical procedures.
The rats were euthanized by carbon dioxide asphyxiation. The rat prostates were quickly removed and placed on ice in pre-chilled, pre-weighed 50 mL plastic tubes. No more than five prostates were placed into one tube. The tubes were then weighed and the prostate tissue wet weights calculated.
To the chilled prostate tissue was then added […] of chilled homogenization buffer. The homogenization buffer was freshly prepared by mixing 10 mM Tris.HCl, pH 7.4, 1 mM sodium molybdate, 1.5 mM EDTA, 1 mM dithiothreitol, 10% (v/v) glycerol and 1% protease inhibitor cocktail (Sigma P 8340).
The prostate tissue was homogenized in a cold room using a pre-chilled Polytron PT3000 homogenizer (Brinkmann). Homogenization was performed at a speed setting of 20, three times for 10 sec bursts. The tubes containing the prostate tissue was kept on ice while homogenizing. The homogenate was allowed to rest on ice for 20 sec between bursts.
The homogenate was then placed into pre-chilled 3 mL polycarbonate ultracentrifuge tubes and centrifuged in the TLA-100 rotor of a TL-100 ultracentrifuge for 12 min at 100,000 rpm at 4° C. The resulting supernatant was stored in 1 mL aliquots at −80° C. until needed.
Binding to the androgen receptor was determined according to the protocol described in Example 86 using the above prepared rat cytosol.
% Inhibition was determined by testing dilutions of the test compound (usually duplicates of 10 μM) in the binding assay. Counts per well were measured and percents of inhibition determined. […] Counts per well were measured and IC50s determined by linear regression.

[3] = rat cytosol, concentration 1000 nM

CC(O)(c1cc2cc(C#N)c(C(F)(F)F)cc2[nH]1)S(=O)(=O)c1ccc(Cl)cc1 (racemic) [compound 262]
IC50 [1]: > 10 µM
% Inhibition [2, 3]: −8.4%

CS(=O)(=O)n1c(C2(O)CCN(C(=O)OCc3ccccc3)CC2)cc2cc(Cl)c(C(F)(F)F)cc21 [compound 19]
IC50 [1]: > 100 µM
inhibition at 1 µM [2, 3]: -55%

CC(O)(Sc1ccc(Cl)c(Cl)c1)c1cc2cc([N+](=O)[O-])c(C(F)(F)F)cc2[nH]1 (racemic) [compound 254]
IC50 [1]: 1.02 µM and 0.92 µM
% Inhibition [2, 3]: 41%
IC50 ([2]; rat cytosol): 0.67 µM

O=C(c1ccc(Cl)cc1)N1CCC(O)(c2cc3cc(Cl)c(C(F)(F)F)cc3[nH]2)CC1 [Compound #25]
IC50 [1]: 8.8 µM
inhibition at 1 µM [2, 3]: -83.5%

CS(=O)(=O)n1c(C2(O)CCNCC2)cc2cc(Cl)c(C(F)(F)F)cc21 [Compound #23]
IC50 [1]: 54 µM
inhibition at 1 µM [2, 3]: -1.5%
IC50 ([2]; rat cytosol): 6 µM

CC(O)(Sc1ccc(Cl)cc1)c1cc2cc(C#N)c(C(F)(F)F)cc2[nH]1 (racemic) [compound 261]
IC50 [1]: 1.46 µM
% Inhibition [2, 3]: 14.05%

CC(O)(CSC1CCCCC1)c1cc2nc(C(F)(F)F)ccc2[nH]1 (racemic) [Compound #1]
IC50 [1]: 14 µM
% Inhibition ([2]; 1 µM): 22%

CS(=O)(=O)n1c(C2(O)CCN(Cc3ccccc3)CC2)cc2cc(Cl)c(C(F)(F)F)cc21 [Compound #21]
IC50 [1]: > 10.2 µM
inhibition at 1 µM [2, 3]: -41.5%

CC(O)(COC(=O)c1ccc(Cl)cc1)c1cc2cc(Cl)c(C(F)(F)F)cc2[nH]1 (centres unmarked) [compound 62]
IC50 [1]: 0.325 µM
inhibition at 1 µM [2, 3]: 69%
